According to article PMC9411522, “Ginsenoside Rg5 allosterically interacts with P2RY12 and ameliorates deep venous thrombosis by counteracting neutrophil NETosis and inflammatory response” (Frontiers in Immunology, 2022):

Columns and labels:
P2RY12 [1] = target: T1, P2RY12 (Homo sapiens, UniProt Q9H244); test: biochemical
P2RY12 [2] = target: T1, P2RY12; test: SPR (Biacore T200, His-captured purified P2RY12, steady-state affinity); antagonism of 2MesADP signalling in CHO-P2RY12 cells; type: binding

T1 sequence (Q9H244 whole entry, one chain of several): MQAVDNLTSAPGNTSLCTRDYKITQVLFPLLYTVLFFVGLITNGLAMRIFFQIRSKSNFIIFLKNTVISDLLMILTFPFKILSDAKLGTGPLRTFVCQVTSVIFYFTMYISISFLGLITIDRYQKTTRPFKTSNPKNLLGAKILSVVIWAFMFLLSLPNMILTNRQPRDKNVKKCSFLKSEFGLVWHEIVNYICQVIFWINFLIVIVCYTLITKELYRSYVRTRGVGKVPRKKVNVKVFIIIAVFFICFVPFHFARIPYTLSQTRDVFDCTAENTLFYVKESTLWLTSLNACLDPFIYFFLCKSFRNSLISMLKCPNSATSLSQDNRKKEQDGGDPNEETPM

Compound | Kd (P2RY12 [1]) | Kd (P2RY12 [2])
CCCSc1nc(N[C@@H]2C[C@H]2c2ccc(F)c(F)c2)c2nnn([C@@H]3C[C@H](OCCO)[C@@H](O)[C@H]3O)c2n1 [Ticagrelor] | 0.102 µM | 
CC(C)=CC/C=C(\C)[C@H]1CC[C@]2(C)[C@@H]1[C@H](O)C[C@@H]1[C@@]3(C)CC[C@H](O[C@@H]4O[C@H](CO)[C@@H](O)[C@H](O)[C@H]4O[C@@H]4O[C@H](CO)[C@@H](O)[C@H](O)[C@H]4O)C(C)(C)[C@@H]3CC[C@]12C [Rg5, Ginsenoside Rg5] |  | 0.33 µM
